Experimental data: patent publication US11319322B2, “Substituted aryl ether compound, preparation method thereof, pharmaceutical composition and use thereof” (Xiamen University, priority 2017, dated 2022)

Legend:
Format in all cases: cell-based
wild-type BaF3 = experiment: Growth inhibition of wild-type BaF3 cells, broad-spectrum toxicity (MTS); conditions: Mus musculus, 48 h, read-out: WT Ba/F3 (IC50/nM)
Procedure: Growth inhibitory activity of compounds on cell lines stably transfected with kinase
The activity of compounds against kinase RET is evaluated by their effect of inhibiting growth of cell lines stably transfected with kinase CCDC6-RET-BaF3, KIF5B-RET-BaF3, and wild-type BaF3 (Proc. Natl. Acad. Sci. USA., 2006, 103, 3153-8.). The growth of the cell lines stably transfected with kinase CCDC6-RET-BaF3, KIF5B-RET-BaF3 depends on their kinase activity. If a compound can inhibit the activity of the kinase RET per se or the activity of the RET signaling pathway, the compound can inhibit the growth of BaF3 cells stably transfected with kinase. […] Therefore, a larger ratio between IC50 of a compound to wild-type BaF3 and IC50 of the compound to the cell lines stably transfected with kinase CCDC6-RET-BaF3, KIF5B-RET-BaF3 indicates better targeting.
The specific test method is given as follows:
1) Medium: DMEM (Dulbecco's modified eagle medium) or RPMI 1640 (containing 10% fetal bovine serum, 100 μg/mL ampicillin, 100 μg/mL streptomycin).
2) Reagents: MTS reaction solution (containing 2 mg/mL of MTS [3-(4,5-dimethylthiazol-2-yl)-5-(3-carboxymethoxyphenyl)-2-(4-sulfophenyl)-2H-tetrazolium, inner Salt]; 100 μg/mL PES (phenazine […])).
3) Compound test: cells stably transfected with kinase (CCDC6-RET-BaF3, KIF5B-RET-BaF3) or wild-type BaF3 cells (2×10^4 cells/well) were incubated into a 96-well culture plate, the volume of cell culture fluid was 90 μL, and then 10 μL of the compound at each gradient concentration was added (the highest concentration was 10 μM, which was diluted stepwise by ⅓, and 8 concentration points were set in total; the system contained 0.1% DMSO (dimethyl sulfoxide)). The cell plate with uniformly mixed compound was cultured in a cell culture incubator (37° C.; 5% CO2) for 48 h, then 20 μL of MTS reaction solution was added, uniformly mixed and incubated in the cell culture incubator (37° C.; 5% CO2) for 1-4 hr, OD values at 490 nm were measured by a microplate reader (VARIOSKAN FLASH, Thermo). Three parallels were set in each group of experiments, with 0.1% (a final concentration) DMSO as a negative control, and a medium without cells or compounds as a blank control. The cell growth inhibition rate was calculated by the following formula: Cell growth inhibition rate %=1−(ODexperimental group−ODblank group)/(ODnegative group−ODblank group)×100%
4) IC50 calculation: The semi-inhibitory concentration of the compound acting on cell growth was calculated using GradPad Prism 5 software according to the measured cell growth inhibition rate.

CCDC6-RET-BaF3 = biological target: T1, CCDC6-RET-BaF3 (Homo sapiens, UniProt P07949); experiment: Growth inhibition of CCDC6-RET-BaF3 cells stably transfected with kinase (MTS); conditions: 48 h, read-out: CCDC6-RET (IC50/nM)
T1 construct: fused on or other part: Q16204 (Coiled-coil domain-containing protein 6)
T1 sequence (P07949 whole entry, change not shown, the tested form may be a part): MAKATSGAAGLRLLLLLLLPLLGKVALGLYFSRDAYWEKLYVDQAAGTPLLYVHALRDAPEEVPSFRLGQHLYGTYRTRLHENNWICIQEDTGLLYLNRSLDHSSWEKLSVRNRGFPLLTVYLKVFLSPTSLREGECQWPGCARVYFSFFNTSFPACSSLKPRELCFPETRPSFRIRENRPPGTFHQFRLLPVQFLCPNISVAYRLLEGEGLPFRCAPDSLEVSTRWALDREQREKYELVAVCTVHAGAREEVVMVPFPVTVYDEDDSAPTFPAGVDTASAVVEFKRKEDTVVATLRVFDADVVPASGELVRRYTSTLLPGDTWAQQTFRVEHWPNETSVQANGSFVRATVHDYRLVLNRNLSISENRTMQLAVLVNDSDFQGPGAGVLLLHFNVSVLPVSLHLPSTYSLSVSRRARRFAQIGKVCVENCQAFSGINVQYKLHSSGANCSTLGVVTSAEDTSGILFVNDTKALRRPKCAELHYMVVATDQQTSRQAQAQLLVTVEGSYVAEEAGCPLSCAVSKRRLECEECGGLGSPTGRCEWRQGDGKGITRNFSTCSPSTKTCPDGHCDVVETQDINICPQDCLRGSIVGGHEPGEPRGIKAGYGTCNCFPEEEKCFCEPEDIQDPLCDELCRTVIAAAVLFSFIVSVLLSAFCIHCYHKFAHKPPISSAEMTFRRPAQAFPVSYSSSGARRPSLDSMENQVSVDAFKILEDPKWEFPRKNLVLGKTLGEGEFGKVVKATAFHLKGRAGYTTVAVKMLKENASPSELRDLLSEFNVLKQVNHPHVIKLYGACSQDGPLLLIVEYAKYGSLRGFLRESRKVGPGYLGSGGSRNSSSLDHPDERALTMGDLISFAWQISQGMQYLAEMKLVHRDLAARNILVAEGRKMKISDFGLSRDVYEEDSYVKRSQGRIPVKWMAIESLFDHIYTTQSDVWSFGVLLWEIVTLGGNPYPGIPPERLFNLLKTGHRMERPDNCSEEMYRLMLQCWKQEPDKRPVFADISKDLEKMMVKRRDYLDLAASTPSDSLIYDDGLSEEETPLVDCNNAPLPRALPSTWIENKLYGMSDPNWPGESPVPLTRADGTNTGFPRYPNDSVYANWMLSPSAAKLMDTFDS
How it was run: (§1)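 BaF3 cells stably expressing CCDC6-RET or KIF5B-RET, or parental BaF3, 2×10^4 cells/well, treated 48 h at 37 °C with 8-point 1:3 dilutions from 10 μM (0.1% DMSO). MTS/PES added 1–4 h, OD490 read; inhibition versus DMSO and blank gave IC50.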

KIF5B-RET-BaF3 = biological target: T2, KIF5B-RET-BaF3 (Homo sapiens, UniProt P07949); experiment: Growth inhibition of KIF5B-RET-BaF3 cells stably transfected with kinase (MTS); conditions: 48 h, read-out: KIF5B-RET (IC50/nM)
T2 construct: fused on or other part: P33176 (Kinesin-1 heavy chain)
T2 sequence (P07949 whole entry, change not shown, the tested form may be a part): as above
How it was run: as §1

Row | Structure (SMILES) | GI50 (CCDC6-RET-BaF3) | GI50 (KIF5B-RET-BaF3) | IC50 (wild-type BaF3)
1 | Cc1ccc(Oc2nc(-c3ccccc3)nc3c2ncn3C)cc1NC(=O)c1ccc(CN2CCN(C)CC2)c(C(F)(F)F)c1 [I-j-2] | 2130 nM | 1580 nM | 2110 nM
2 | CCC(=O)NC1CCN(c2ccc(NC(=O)c3ccc(C)c(Oc4nc(-c5ccncc5)nc5ccn(C)c45)c3)cc2C(F)(F)F)CC1 [III-v-8] | 10900 nM | 4340 nM | 
3 | CC(=O)NC1CCN(c2ccc(NC(=O)c3ccc(C)c(Oc4nc(-c5ccncc5)nc5ccn(C)c45)c3)cc2C(F)(F)F)CC1 [III-v-9] | 4210 nM | 1750 nM | 
4 | Cc1ccc(Oc2nc(-c3ccncc3)nc3nn(C)cc23)cc1NC(=O)c1cccc(C(F)(F)F)c1 [IV-c-2] | 1680 nM | 2840 nM | 
5 | Cc1ccc(Oc2nc(-c3cccc(Cl)c3)nc3nn(C)cc23)cc1C(=O)Nc1ccc(CN2CCN(C)CC2)c(C(F)(F)F)c1 [IV-n-4] | 3900 nM | 1710 nM | 
6 | Cc1ccc(Oc2nc(-c3cccc(O)c3)nc3nn(C)cc23)cc1C(=O)Nc1ccc(CN2CCN(C)CC2)c(C(F)(F)F)c1 [IV-n-6] | 4310 nM | 4230 nM | 
7 | Cc1ccc(Oc2nc(-c3cccc(N)c3)nc3nn(C)cc23)cc1C(=O)Nc1ccc(CN2CCN(C)CC2)c(C(F)(F)F)c1 [IV-n-8] | 2090 nM | 1620 nM | 
8 | Cc1ccc(Oc2nc(-c3ccc(N)cc3)nc3nn(C)cc23)cc1C(=O)Nc1ccc(CN2CCN(C)CC2)c(C(F)(F)F)c1 [IV-n-9] | 1830 nM | 1570 nM | 
9 | Cc1ccc(Oc2nc(-c3ccoc3)nc3nn(C)cc23)cc1C(=O)Nc1ccc(CN2CCN(C)CC2)c(C(F)(F)F)c1 [IV-n-10] | 2160 nM | 1840 nM | 
10 | Cc1ccc(Oc2nc(-c3ccsc3)nc3nn(C)cc23)cc1C(=O)Nc1ccc(CN2CCN(C)CC2)c(C(F)(F)F)c1 [IV-n-11] | 5220 nM | 4210 nM | 
11 | CN1CCN(Cc2ccc(NC(=O)c3cc(Oc4nc(-c5cccnc5)nc5nn(C)cc45)ccc3Cl)cc2C(F)(F)F)CC1 [IV-o-1] | 1980 nM | 1720 nM | 
12 | CN1CCN(Cc2ccc(NC(=O)c3cc(Oc4nc(-c5ccncc5)nc5nn(C)cc45)ccc3Cl)cc2C(F)(F)F)CC1 [IV-o-2] | 88.6 nM | 12.1 nM | 
13 | CN1CCN(Cc2ccc(NC(=O)c3cc(Oc4nc(-c5cccc(Cl)c5)nc5nn(C)cc45)ccc3Cl)cc2C(F)(F)F)CC1 [IV-o-4] | 4280 nM | 3110 nM | 
14 | CN1CCN(Cc2ccc(NC(=O)c3cc(Oc4nc(-c5ccc(Cl)cc5)nc5nn(C)cc45)ccc3Cl)cc2C(F)(F)F)CC1 [IV-o-5] | 4090 nM | 3390 nM | 
15 | CN1CCN(Cc2ccc(NC(=O)c3cc(Oc4nc(-c5ccc(O)cc5)nc5nn(C)cc45)ccc3Cl)cc2C(F)(F)F)CC1 [IV-o-7] | 1510 nM | 1610 nM | 
16 | CN1CCN(Cc2ccc(NC(=O)c3cc(Oc4nc(-c5cccc(N)c5)nc5nn(C)cc45)ccc3Cl)cc2C(F)(F)F)CC1 [IV-o-8] | 172 nM | 152 nM | 
17 | CN1CCN(Cc2ccc(NC(=O)c3cc(Oc4nc(-c5ccc(N)cc5)nc5nn(C)cc45)ccc3Cl)cc2C(F)(F)F)CC1 [IV-o-9] | 4810 nM | 4360 nM | 
18 | CN1CCN(Cc2ccc(NC(=O)c3cc(Oc4nc(-c5ccoc5)nc5nn(C)cc45)ccc3Cl)cc2C(F)(F)F)CC1 [IV-o-10] | 4290 nM | 3760 nM | 
19 | Cc1ccc(Oc2cc(-c3cn[nH]c3)nc3[nH]ccc23)cc1C(=O)Nc1ccc(CN2CCN(C)CC2)c(C(F)(F)F)c1 [V-n-12] | 566 nM | 673 nM | 
20 | Cc1ccc(Oc2cc(-c3ccncc3)nc3c2ccn3C)cc1C(=O)Nc1ccc(CN2CCN(C)CC2)c(C(F)(F)F)c1 [V-n-16] | 472 nM | 388 nM | 
21 | Cc1ccc(Oc2cc(-c3ccncc3)nc3[nH]ccc23)cc1C(=O)Nc1cc(CN2CCN(C)CC2)cc(C(F)(F)F)c1 [V-r-1] | 2960 nM | 2810 nM | 
22 | Cc1ccc(NC(=O)c2ccc(CN3CCN(C)CC3)c(C(F)(F)F)c2)cc1Oc1cc(-c2ccncc2)nc2sccc12 [VII-i-2] | 1360 nM | 1330 nM | 
23 | Cc1ccc(Oc2cc(-c3ccncc3)nc3sccc23)cc1NC(=O)c1ccc(CN2CCN(C)CC2)c(C(F)(F)F)c1 [VII-j-2] | 95.6 nM | 189 nM | 
24 | CN1CCN(Cc2ccc(NC(=O)c3cccc(Oc4cc(-c5ccncc5)nc5sccc45)c3)cc2C(F)(F)F)CC1 [VII-l-2] | 215 nM | 315 nM | 
25 | Cc1ccc(Oc2cc(-c3cccnc3)nc3sccc23)cc1C(=O)Nc1ccc(CN2CCN(C)CC2)c(C(F)(F)F)c1 [VII-n-1] | 1690 nM | 1780 nM | 
26 | Cc1ccc(Oc2cc(-c3ccncc3)nc3sccc23)cc1C(=O)Nc1ccc(CN2CCN(C)CC2)c(C(F)(F)F)c1 [VII-n-2] | 221 nM | 405 nM | 
27 | CN1CCN(Cc2ccc(NC(=O)c3cc(Oc4cc(-c5ccncc5)nc5sccc45)ccc3Cl)cc2C(F)(F)F)CC1 [VII-o-2] | 326 nM | 499 nM | 

More lines, in order of falling GI50 (CCDC6-RET-BaF3), values ahead:

Row | GI50 (CCDC6-RET-BaF3) | GI50 (KIF5B-RET-BaF3) | Structure (SMILES) | IC50 (wild-type BaF3)
28 | 5870 nM | 4170 nM | Cc1ccc(NC(=O)c2cccc(C(F)(F)F)c2)cc1Oc1nc(-c2ccncc2)nc2nn(C)cc12 [IV-b-2] | 
29 | 5700 nM | 7420 nM | Cc1ccc(NC(=O)c2ccc(CN3CCN(C)CC3)c(C(F)(F)F)c2)cc1Oc1nc(-c2ccncc2)nc2ccsc12 [VI-i-2] | 
30 | 4310 nM | 4180 nM | CN1CCN(Cc2ccc(NC(=O)c3cc(Oc4nc(-c5ccccc5)nc5nn(C)cc45)ccc3Cl)cc2C(F)(F)F)CC1 [IV-o-3] | 
31 | 4150 nM | 3540 nM | Cc1ccc(Oc2nc(-c3ccccc3)nc3nn(C)cc23)cc1C(=O)Nc1ccc(CN2CCN(C)CC2)c(C(F)(F)F)c1 [IV-n-3] | 
32 | 4020 nM | 3400 nM | CN1CCN(Cc2ccc(NC(=O)c3cc(Oc4nc(-c5cccc(O)c5)nc5nn(C)cc45)ccc3Cl)cc2C(F)(F)F)CC1 [IV-o-6] | 
33 | 3610 nM |  | CN1CCN(Cc2ccc(NC(=O)c3cccc(Oc4nc(-c5cccnc5)nc5c4ncn5C)c3)cc2C(F)(F)F)CC1 [I-l-2] | 1360 nM
34 | 3330 nM | 1460 nM | CCS(=O)(=O)NC1CCN(c2ccc(NC(=O)c3ccc(C)c(Oc4nc(-c5ccncc5)nc5ccn(C)c45)c3)cc2C(F)(F)F)CC1 [III-v-11] | 
35 | 3030 nM | 1620 nM | CN1CCN(Cc2ccc(NC(=O)c3cc(Oc4nc(-c5ccsc5)nc5nn(C)cc45)ccc3Cl)cc2C(F)(F)F)CC1 [IV-o-11] | 
36 | 2960 nM | 2320 nM | Cc1ccc(Oc2nc(-c3ccc(Cl)cc3)nc3nn(C)cc23)cc1C(=O)Nc1ccc(CN2CCN(C)CC2)c(C(F)(F)F)c1 [IV-n-5] | 
37 | 2810 nM | 3940 nM | Cc1ccc(Oc2nc(-c3ccc(O)cc3)nc3nn(C)cc23)cc1C(=O)Nc1ccc(CN2CCN(C)CC2)c(C(F)(F)F)c1 [IV-n-7] | 
38 | 1570 nM | 1630 nM | CN1CCN(Cc2ccc(NC(=O)c3cc(Oc4cc(-c5cccnc5)nc5sccc45)ccc3Cl)cc2C(F)(F)F)CC1 [VII-o-1] | 
39 | 1540 nM | 5710 nM | Cn1cnc2c(Oc3cccc(C(=O)Nc4cccc(C(F)(F)F)c4)c3)nc(-c3ccncc3)nc21 [I-d-2] | > 10000 nM
40 | 1020 nM | 1350 nM | CN1CCN(Cc2ccc(NC(=O)c3cccc(Oc4cc(-c5cccnc5)nc5sccc45)c3)cc2C(F)(F)F)CC1 [VII-l-1] | 
41 | 811 nM | 1280 nM | Cc1ccc(Oc2cc(-c3cccnc3)nc3sccc23)cc1NC(=O)c1ccc(CN2CCN(C)CC2)c(C(F)(F)F)c1 [VII-j-1] | 
42 | 637 nM | 1080 nM | CN1CCN(Cc2ccc(C(=O)Nc3cccc(Oc4cc(-c5ccncc5)nc5sccc45)c3)cc2C(F)(F)F)CC1 [VII-h-2] | 
43 | 149 nM | 191 nM | CCC(=O)NCC1CCN(c2ccc(NC(=O)c3ccc(C)c(Oc4nc(-c5cccnc5)nc5cc[nH]c45)c3)cc2C(F)(F)F)CC1 [III-v-12] | 
